Test results as given in patent US20260217692A1 (Ascentage Pharma (Suzhou) Co., Ltd., priority 2023, published 2026).
Values joined by “and” are separate entries in the source; they are usually repeats but may differ in a detail not shown here. Identical values can stand only once. Counter-ions that a name gives are not always drawn. Blank lines part the entries; values can stand above or below the compound they belong to.

Columns and labels:
[1] = Dynamic vapor sorption (DVS) hygroscopicity test; assay type: physicochemical; settings: for hygroscopic weight gain (DVS curve): 25° C. and 80% RH
Description: In the present disclosure, the DVS test parameters are set as follows: [table]

[2] = Stability of crystal forms under stability test conditions (appearance, XRPD, HPLC); assay type: physicochemical; settings: for Total impurities: HPLC
Procedure: The samples were placed under the stability conditions shown in the following table, sampling was performed at the corresponding time points, and the samples were subjected to appearance and XRPD tests. […] The stability results obtained are recorded in the following table. […] The samples were placed under the stability test conditions shown in the following table, sampling was performed at different time points, and the samples were subjected to the XRPD test. […] The samples were placed in an open state under the stability test conditions of 40° C./75% RH and 90% RH; and the samples were placed in a closed state at 60° C. in a light box (the test samples in the dark were placed in the same manner as the illumination test samples, and the treatment was performed in the dark). Sampling was performed at different time points, and the samples were subjected to the XRPD test. […] The samples were placed under the stability conditions shown in the following table, sampling was performed at the corresponding time points, and the samples were subjected to appearance and XRPD tests. […] The stability results obtained are recorded in the following table.

[3] = system: multiple xenograft tumor models; settings: cited from earlier work
preclinical tumor model = preclinical tumor model studies; cited from earlier work
[4] = system: EGFRT790M-mutant NSCLC xenograft tumor models; settings: cited from earlier work
[5] = in vivo; cited from earlier work
[6] = Polymorph screening test, suspension method (crystal form by XRPD after stirring in solvent); assay type: physicochemical
Procedure: (or 50° C.) for 3 days in the dark and centrifuged to remove the supernatant; the resulting precipitate was dried under vacuum (25° C., −0.1 MPa); and the resulting solid was collected and subjected to the XRPD test. The results are as follows:
(or 50° C./80° C.) for 3 days in the dark and centrifuged to remove the supernatant; and the resulting precipitate was dried under vacuum (25° C., −0.1 MPa).
(or 50° C.) for 3 days in the dark and centrifuged to remove the supernatant; and the resulting precipitate was dried under vacuum (25° C., −0.1 MPa).

[7] = XRPD of residual solids in solubility test in biological media; assay type: physicochemical; settings: Water; 37° C.
[8] = Solubility in biological media at 37° C. (HPLC, pH)
[9] = Illumination (1 ICH), 5 d and 10 d
[10] = 0 d, listed as Crystal form D of the compound represented by formula I

hygroscopic weight gain (DVS curve) [1]: 0.15%
Appearance ([2]; 0 d): Pale yellow powder
Total impurities ([2]; 0 d): 0.10%
Total impurities ([2]; 40° C./75% RH, 5 d): 0.18%
Total impurities ([2]; 40° C./75% RH, 10 d): 0.53%
Appearance ([2]; 40° C./75% RH, 30 d): Color deepening
Total impurities ([2]; 40° C./75% RH, 30 d): 1.09%
Total impurities ([2]; 60° C., 5 d): 0.15%
Total impurities ([2]; 60° C., 10 d): 0.23%
Total impurities ([2]; 60° C., 30 d): 0.21%
Total impurities ([2]; 90% RH, 5 d): 0.17%
Total impurities ([2]; 90% RH, 10 d): 0.28%
Appearance ([2]; 90% RH, 30 d): Color deepening
Total impurities ([2]; 90% RH, 30 d): 0.41%
Total impurities ([2]; Illumination (1 ICH), 5 d): 0.39%
Appearance [2, 9]: Color deepening
Total impurities ([2]; Illumination (1 ICH), 10 d): 0.51%
Total impurities ([2]; In the dark, 5 d): 0.07%
Total impurities ([2]; In the dark, 10 d): 0.16%
Compound: Cc1cc(Nc2ncc(Cl)c(Nc3ccccc3S(=O)(=O)C(C)C)n2)c(OC(C)C)cc1C1=CCN(C2CCOCC2)CC1.Cl

Compound: Cc1cc(Nc2ncc(Cl)c(Nc3ccccc3S(=O)(=O)C(C)C)n2)c(OC(C)C)cc1C1=CCN(C2CCOCC2)CC1 [APG-2449]
anti-tumor activity [3]: exhibits anti-tumor activity
resistance developed by the first-generation ALK inhibitor (preclinical tumor model): can overcome resistance
effect in combination with EGFR inhibitors (particularly AZD9291/osimertinib) [4]: synergistic effect
oral bioavailability [5]: high oral bioavailability

hygroscopic weight gain (DVS curve) [1]: 0.14±0.005% and 0.14%
XRPD ([2]; 0 d): No significant change
Total impurities [2, 10]: 0.14%
Appearance [2, 10]: No significant change
Total impurities ([2]; 25° C./60% RH, 1 M): 0.17%
Total impurities ([2]; 25° C./60% RH, 10 d): 0.14%
Appearance ([2]; 25° C./60% RH, 10 d and 1 M): No significant change
XRPD ([2]; 25° C./60% RH, 10 d and 1 M): No significant change
Total impurities ([2]; 40° C./75% RH, 1 M, listed as Crystal form D of the compound represented by formula I): 0.17%
Total impurities ([2]; 40° C./75% RH, 10 d, listed as Crystal form D of the compound represented by formula I): 0.17%
XRPD ([2]; 40° C./75% RH, 10 d and 1 M): No significant change
Appearance ([2]; 40° C./75% RH, 10 d and 1 M, listed as Crystal form D of the compound represented by formula I): No significant change
Total impurities ([2]; 60° C., 1 M, listed as Crystal form D of the compound represented by formula I): 0.20%
Total impurities ([2]; 60° C., 10 d, listed as Crystal form D of the compound represented by formula I): 0.17%
XRPD ([2]; 60° C., 10 d and 1 M): No significant change
Appearance ([2]; 60° C., 10 d and 1 M, listed as Crystal form D of the compound represented by formula I): No significant change
Total impurities ([2]; 90% RH, 1 M, listed as Crystal form D of the compound represented by formula I): 0.17%
Total impurities ([2]; 90% RH, 10 d, listed as Crystal form D of the compound represented by formula I): 0.17%
XRPD ([2]; 90% RH, 10 d and 1 M): No significant change
Appearance ([2]; 90% RH, 10 d and 1 M, listed as Crystal form D of the compound represented by formula I): No significant change
Total impurities ([2]; Illumination, 5 d, listed as Crystal form D of the compound represented by formula I): 0.17%
Appearance ([2]; Illumination, 5 d and 10 d): Color deepening
XRPD ([2]; Illumination, 5 d and 10 d): No significant change
Total impurities ([2]; Illumination, 10 d, listed as Crystal form D of the compound represented by formula I): 2.43%
Total impurities ([2]; In the dark, 5 d, listed as Crystal form D of the compound represented by formula I): 0.17%
XRPD ([2]; In the dark, 5 d and 10 d): No significant change
Appearance ([2]; In the dark, 5 d and 10 d, listed as Crystal form D of the compound represented by formula I): No significant change
Total impurities ([2]; In the dark, 10 d, listed as Crystal form D of the compound represented by formula I): 0.14%
Compound: Cc1cc(Nc2ncc(Cl)c(Nc3ccccc3S(=O)(=O)C(C)C)n2)c(OC(C)C)cc1C1=CCN(C2CCOCC2)CC1 [crystal form D]

hygroscopic weight gain (DVS curve) [1]: 0.11±0.005% and 0.11%
hygroscopicity (DVS result in words) ([1]; 80% RH): no hygroscopicity
crystal form before and after the hygroscopic test ([1]; DVS): did not change
stability of crystal form in solvent, suspension method ([6]; ethanol, isopropanol, acetone, ethyl acetate, isopropyl acetate, methyl tert-butyl ether, dichloromethane, tetrahydrofuran, toluene, n-heptane, dioxane, methyl acetate, 2-methyltetrahydrofuran, cyclohexane, n-hexane, methyl ethyl ketone, or methyl isobutyl ketone): relatively good stability
crystal form when stirred in solvent ([6]; same solvents as in b585 at 25-50° C.): remained stable
Appearance ([2]; 0 d): Pale yellow powder
Crystal form (XRPD) ([2]; 0 d): Maleate crystal form A
Total impurities ([2]; 0 d): 0.12%
Crystal form (XRPD) ([2]; 40° C./75% RH, 5 d, 10 d and 30 d): Maleate crystal form A
Total impurities ([2]; 40° C./75% RH, 5 d): 0.16%
Total impurities ([2]; 40° C./75% RH, 10 d): 0.14%
Total impurities ([2]; 40° C./75% RH, 30 d): 0.29%
Crystal form (XRPD) ([2]; 60° C., 5 d, 10 d and 30 d): Maleate crystal form A
Total impurities ([2]; 60° C., 5 d): 0.16%
Total impurities ([2]; 60° C., 10 d): 0.21%
Total impurities ([2]; 60° C., 30 d): 0.16%
Crystal form (XRPD) ([2]; 90% RH, 5 d, 10 d and 30 d): Maleate crystal form A
Total impurities ([2]; 90% RH, 5 d): 0.14%
Total impurities ([2]; 90% RH, 10 d): 0.25%
Total impurities ([2]; 90% RH, 30 d): 0.26%
Total impurities ([2]; Illumination (1 ICH), 5 d): 0.26%
Appearance [2, 9]: Color deepening
Crystal form (XRPD) [2, 9]: Maleate crystal form A
Total impurities ([2]; Illumination (1 ICH), 10 d): 0.65%
Total impurities ([2]; In the dark, 5 d): 0.12%
Crystal form (XRPD) ([2]; In the dark, 5 d and 10 d): Maleate crystal form A
Total impurities ([2]; In the dark, 10 d): 0.18%
Compound: Cc1cc(Nc2ncc(Cl)c(Nc3ccccc3S(=O)(=O)C(C)C)n2)c(OC(C)C)cc1C1=CCN(C2CCOCC2)CC1 [one equivalent of maleate crystal form A]

hygroscopic weight gain (DVS curve) [1]: 0.19±0.005% and 0.19%
stability of crystal form in solvents, succinate polymorph screening test ([6]; in solvents): relatively good stability
crystal form when stirred in solvent ([6]; methanol, ethanol, acetonitrile, acetone, ethyl acetate, dichloromethane, water, n-heptane, dioxane, or mixed solvent of methanol, acetonitrile, or acetone with water, 40° C.): remained stable
Total impurities ([2]; 0 d): 0.73%
Total impurities ([2]; 40° C./75% RH, 1 M): 0.74%
Total impurities ([2]; 40° C./75% RH, 10 d): 0.74%
Total impurities ([2]; 60° C., 1 M): 0.71%
Total impurities ([2]; 60° C., 10 d): 0.69%
Total impurities ([2]; 90% RH, 1 M): 0.96%
Total impurities ([2]; 90% RH, 10 d): 0.73%
Total impurities ([2]; Illumination, 5 d): 0.86%
Appearance ([2]; Illumination, 5 d and 10 d): Color deepening
Total impurities ([2]; Illumination, 10 d): 0.98%
Compound: Cc1cc(Nc2ncc(Cl)c(Nc3ccccc3S(=O)(=O)C(C)C)n2)c(OC(C)C)cc1C1=CCN(C2CCOCC2)CC1 [one equivalent of succinate crystal form D]

Compound: Maleate
XRPD results of residual solids [7]: Crystal form A
Solubility ([8]; FaSSIF-V2, 2 h): 0.02 mg/mL
Solubility ([8]; FaSSIF-V2, 24 h): <LOQ
Solubility ([8]; FeSSIF-V2, 2 h): 0.22 mg/mL
Solubility ([8]; FeSSIF-V2, 24 h): 0.22 mg/mL
Solubility ([8]; SGF, 2 h): 1.39 mg/mL
Solubility ([8]; SGF, 24 h): 1.92 mg/mL
Solubility ([8]; Water, 2 h): 0.02 mg/mL
Solubility ([8]; Water, 24 h): 0.02 mg/mL
